How the values were obtained:
Assay type in all cases: in vivo
[1] = system: green peach aphid (Myzus persicae); assay: Myzus test (spray treatment), Chinese cabbage leaf sections; settings: for pest or weed control at 500 g/ha: Myzus persicae, 120 h, after 5 d, read-out: Death rate in % after 5 d; for activity after 5 days: 500 g/ha
Method: (§1) To prepare a suitable active compound preparation 1 part by weight of the active compound is mixed with the given amount of solvent and emulsifier and the concentrate is diluted to the desired concentration with water containing emulsifier.
Chinese cabbage leaf sections (Brassica pekinensis) infested with all stages of the green peach aphid (Myzus persicae) are sprayed with an active compound preparation at the desired concentration.
After the desired time the activity in % is determined. Here 100% means that all aphids were killed; 0% means that no aphids were killed.

[2] = system: cotton aphid (Aphis gossypii); assay: Aphis gossypii test, immersion of cotton leaves; settings: 100 g/ha (so in the source), cotton leaves immersed
Method: as §1
Cotton plant leaves (Gossypium hirsutum) heavily infected with the cotton aphid (Aphis gossypii) are treated by immersing in the active compound preparation at the desired concentration. After the desired time the death rate in % is determined. Here 100% means that all aphids were killed; 0% means that no aphids were killed.

[3] = system: rice brown plant hopper (Nilaparvata lugens); assay: Nilaparvata lugens test; hydroponic treatment (NILALU SYS); settings: 500 g/ha
Method: To prepare a suitable active compound preparation I part by weight of the active compound is mixed with the given amount of solvent and emulsifier and the concentrate is diluted to the desired concentration with water containing emulsifier.
The active compound preparation is pipetted into water. […] Infection is then carried out with rice brown plant hopper (Nilaparvata lugens).
After the desired time the activity in % is determined. Here 100% means that all plant hoppers were killed; 0% means that no plant hoppers were killed.

[4] = system: caterpillars of the fall army worm (Spodoptera frugiperda); assay: Spodoptera frugiperda test (spray treatment); settings: 500 g/ha
Method: as §1
Maize leaf sections (Zea mays) are sprayed with an active compound preparation at the desired concentration and after drying treated with caterpillars of the fall army worm (Spodoptera frugiperda).
After the desired time the activity in % is determined. Here 100% means that all caterpillars were killed; 0% means that no caterpillars were killed.

[5] = system: eggs of the cotton boll worm (Heliotis virescens); assay: Heliothis virescens test (spray treatment); settings: 500 g/ha, spray on soy bean leaves
Method: as §1
Soy bean leaves (Glycine max.) are sprayed with an active compound preparation at the desired concentration and after drying were infected with eggs of the cotton boll worm (Heliotis virescens).
After the desired time the activity in % is determined. Here 100% means that all eggs were killed; 0% means that no eggs were killed.

Lucilia cuprina larvae = assay: Fly larvae test; settings: 100 ppm
Method: 10 mg active compound were dissolved in 0.5 ml dimethylsulphoxide. To prepare a suitable formulation the active compound solution is diluted with water to the respective desired concentration.
About 20 Lucilia cuprina larvae are placed in a test tube that contains ca. 1 cm^3 horse flesh and 0.5 ml of the active compound preparation under test.
After the desired time the death rate in % is determined. Here 100% means that all larvae were killed; 0% means that no larvae were killed.

[6] = system: green peach aphid (Myzus persicae); assay: Myzus persicae test (hydroponic treatment); settings: pea plant; for activity after 7 days: 20 ppm
Method: To prepare a suitable active compound preparation 1 part by weight of the active compound is mixed with the given amount of solvent and emulsifier and the concentrate is diluted to the desired concentration with water.
The active compound preparation is mixed with water. The concentration given refers to the amount of active compound per unit volume water (mg/l=ppm). The treated water is placed into a vessel with one pea plant (Pisum sativum). After the prescribed time infection with the green peach aphid (Myzus persicae) is carried out.
After the desired time the death rate in % is determined. Here 100% means that all aphids were killed; 0% means that no aphids were killed.

[7] = system: eggs of the diamond back moth (Plutella xylostella); assay: Plutella test, artificial diet; settings: 1000 g/ha (so in the source), on artificial diet
Method: To prepare a suitable active compound preparation 1 part by weight active compound was mixed with the given amount of solvent and the concentrate was diluted to the desired concentration with methanol.
A given amount of active compound preparation at the desired concentration is pipetted onto a standardised amount of artificial diet. After the methanol has evaporated ca. 200-300 eggs of the diamond back moth (Plutella xylostella) are added to the diet.
After the desired time the death rate of the eggs and larvae, respectively, in % is determined. Here 100% means that all animals were killed; 0% means that no animals were killed.

[8] = system: adult engorged females of Boophilus microplus (strain Parkhurst-SP resistant); assay: Test with resistant monoxenous cattle ticks/SP-resistant Parkhurst strain, injection method; settings: 20 μg/animal injected into the abdomen
Method: 10 mg of the active compound are dissolved in 0.5 ml dimethylsulphoxide, lower concentrations are prepared by dilution with the same solvent.
The test is carried out five times. 1 μl is injected into the abdomen, the animals are transferred into dishes and stored in an air-conditioned room. The control of activity is carried out on a deposit of fertile eggs after 7 days. Eggs, the fertility of which was not visible externally, were stored in glass tubes in an incubator until larvae hatch after about 24 days. An activity of 100% means that no ticks laid fertile eggs.

[9] = system: larvae of the mustard leaf beetle (Phaedon cochleariae); assay: Phaedon cochleariae test (spray treatment); settings: 500 g/ha
Method: [table] To prepare a suitable active compound preparation 1 part by weight of the active compound is mixed with the given amount of solvent and emulsifier and the concentrate is diluted to the desired concentration with water containing emulsifier. Chinese cabbage leaf sections (Brassica pekinensis) are sprayed with an active compound preparation at the desired concentration and after drying are infected with larvae of the mustard leaf beetle (Phaedon cochleariae). After the desired time the activity in % is determined.

CC1OC(=O)C=C1N(C)Cc1ccc(Cl)nc1 (stereo not drawn)
pest or weed control at 500 g/ha [1]: 100%

CN(Cc1ccc(Cl)nc1)C1=CC(=O)CCC1
pest or weed control at 500 g/ha [1]: 90%

O=C1C=C(N(Cc2ccc(Cl)nc2)C2CC2)CC1
pest or weed control at 500 g/ha [1]: 100%

CN(Cc1ccc(Cl)cn1)C1=CC(=O)CC1
Death rate in % after 6 d [2]: 95%

O=C1C=C(NCc2ccc(Cl)nc2)CCC1 [Compound 1]
activity after 5 days [1]: 100%
activity after 7 days [3]: 100%

CCCN(Cc1ccc(Cl)nc1)C1=CC(=O)CCC1 [Compound 4]
activity after 5 days [1]: 100%

C=CCN(Cc1ccc(Cl)nc1)C1=CC(=O)CCC1 [Compound 9]
activity after 5 days [1]: 100%

C#CCN(Cc1ccc(Cl)nc1)C1=CC(=O)CCC1 [Compound 10]
activity after 5 days [1]: 100%

Cn1c(NCc2ccc(Cl)nc2)cc(=O)n(C)c1=O [Compound 70]
activity after 5 days [1]: 100%

CCN(Cc1ccc(Cl)nc1)C1=CC(=O)OC1 [Compound 85]
Death rate in % after 7 d ([4]; spray on maize leaf sections, after 7 d): 100%
Death rate in % after 7 d [5]: 100%
death rate after 2 days (Lucilia cuprina larvae): 100%

C=CCN(Cc1ccc(Cl)nc1)C1=CC(=O)OC1 [Compound 91]
Death rate in % after 7 d ([6]; 20 g/ha (so in the source), after 7 d): 100%

C#CCN(Cc1ccc(Cl)nc1)C1=CC(=O)OC1 [Compound 92]
activity after 5 days [1]: 100%

CC(=O)N(Cc1ccc(Cl)nc1)C1=CC(=O)OC1 [Compound 94]
activity after 5 days [1]: 100%

CON(Cc1ccc(Cl)nc1)C1=CC(=O)OC1 [Compound 98]
activity after 5 days [1]: 100%
activity after 7 days [6]: 100%
death rate after 2 days (Lucilia cuprina larvae): 100%

CN(Cc1ccc(Cl)nc1)C1=C(F)C(=O)OC1 [Compound 104]
death rate after 2 days (Lucilia cuprina larvae): 100%

CN(Cc1ccc(Cl)nc1)C1=CC(=O)SC1 [Compound 112]
Death rate in % after 7 d [7]: 100%

CN(Cc1ccc(Br)nc1)C1=CC(=O)OC1 [Compound 121]
activity after 5 days [1]: 100%
activity after 7 days ([4]; spray, after 7 days): 100%
activity after 7 days [6]: 100%
death rate after 2 days (Lucilia cuprina larvae): 100%
activity (no fertile eggs laid) [8]: 95%

O=C1C=C(N(Cc2ccc(F)nc2)C2CC2)CO1 [Compound 124]
activity after 5 days [1]: 100%

CN(Cc1ccc(C(F)(F)F)nc1)C1=CC(=O)OC1 [Compound 125]
activity after 5 days [1]: 100%
activity after 7 days [6]: 100%
death rate after 2 days (Lucilia cuprina larvae): 90%
activity (no fertile eggs laid) [8]: 80%

O=C1C=C(N(Cc2ccc(C(F)(F)F)nc2)C2CC2)CO1 [Compound 126]
activity after 5 days [1]: 100%

CN(Cc1cnc(Cl)s1)C1=CC(=O)OC1 [Compound 144]
Death rate in % after 7 d [5]: 99%

CN(Cc1cccnc1)C1=CC(=O)OC1 [Compound 147]
activity after 5 days [1]: 100%

CN(Cc1ccc(Cl)nc1)C1=CC(=O)CC1 [Compound 175]
death rate after 2 days (Lucilia cuprina larvae): 100%

CN(Cc1ccc(Cl)nc1)C1=CC(=O)OC1 [drawing 472]
pest or weed control at 500 g/ha [1]: 100%

CCN(Cc1ccc(Cl)nc1)C1=CC(=O)OC1 [drawing 473]
pest or weed control at 500 g/ha [1]: 90%

CN(Cc1cnc(Cl)s1)C1=CC(=O)OC1 [drawing 474]
pest or weed control at 500 g/ha [1]: 100%

O=C1C=C(NCc2ccc(Cl)nc2)CO1 [drawing 475]
pest or weed control at 500 g/ha [1]: 90%

CN(Cc1ccc(Cl)nc1)C1=C(F)C(=O)OC1 [drawing 477]
pest or weed control at 500 g/ha [1]: 100%

O=C1C=C(N(Cc2ccc(Cl)nc2)C2CC2)CO1 [drawing 478]
pest or weed control at 500 g/ha [1]: 100%

C=CCN(Cc1ccc(Cl)nc1)C1=CC(=O)OC1 [drawing 479]
pest or weed control at 500 g/ha [1]: 100%

CN(Cc1ccc(Cl)nc1)C1=CC(=O)CC1 [drawing 481]
pest or weed control at 500 g/ha [1]: 100%

CN(Cc1ccc(Cl)nc1)C1=CC(=O)SC1 [drawing 483]
pest or weed control at 500 g/ha [1]: 80%

CN(Cc1ccc(Cl)nc1)C1=CC(=O)OC1 [drawing 484]
Death rate in % after 7 d [9]: 100%

CCN(Cc1ccc(Cl)nc1)C1=CC(=O)OC1 [drawing 485]
Death rate in % after 7 d [9]: 100%

O=C1C=C(N(Cc2ccc(Cl)nc2)C2CC2)CO1 [drawing 486]
Death rate in % after 7 d [9]: 100%

C=CCN(Cc1ccc(Cl)nc1)C1=CC(=O)OC1 [drawing 487]
Death rate in % after 7 d [9]: 67%

CN(Cc1ccc(Cl)nc1)C1=CC(=O)OC1 [drawing 493]
Death rate in % after 6 d [2]: 100%

O=C1C=C(NCc2ccc(Cl)nc2)CO1 [drawing 494]
Death rate in % after 6 d [2]: 98%

C=CCN(Cc1ccc(Cl)nc1)C1=CC(=O)OC1 [drawing 495]
Death rate in % after 6 d [2]: 95%
